# Results reported in article PMC4633953, “FR171456 is a specific inhibitor of mammalian NSDHL and yeast Erg26p” (Nature Communications, 2015).
# “And” between values parts separate entries of the source, which are not always exact repeats. Identical values can stand only once.
# Key:
# [1] = system: Aspergillus terreus NF4906; test: Antifungal MIC; assay type: cell-based
# [2] = system: ergosterol pathway intermediates in C. albicans SC5314; test: Focused metabolomics: 13C-labelled ergosterol pathway intermediates in C. albicans; assay type: cell-based; conditions: increasing doses
# Protocol: For ^13C- labelling studies, the wild type C. albicans strain SC5314 was obtained from ATCC (Manassas, VA) and was cultured at 30 °C in YPD broth (1% yeast extract, 2% peptone, 2% dextrose) or Synthetic Medium (3% glycerol, 0.1% glucose, 65 mM NH4Cl, 1.7 mM NaCl, 7 mM KH2PO4, 1 mM CaCl2, 0.5 mM MgSO4).
# Approximately 1.25 × 10^8 C. albicans cells from a saturated YPD culture were inoculated into 100 ml Synthetic Medium (SM) and grown at 30 °C to an OD of 1.0. Cells were washed once in modified SM (25 mM KPO4 pH 7.0, with glucose omitted) and suspended to 5 OD600 units per ml in modified SM.
# Labelling reactions were performed in 12-ml glass tubes with PTFE-lined caps (Corning) and containing 1 ml cell suspension (∼6 × 10^7 cells), 10 μl DMSO or 10 μl compound dissolved in DMSO, 12 μl 1M D-Glucose (U^-13C6 glucose), and 10 μl 1 M (1,2^-13C2) sodium acetate (Cambridge Isotope Laboratories, Inc). Before LC-MS analysis, dried lipid extracts were dissolved in 500 μl methanol, vortexed and sonicated for 10 min.
# Squalene, ergosterol, lanosterol and zymosterol were quantified using the tandem mass spectrometer API4000 triple quadrupole (AB Sciex) with atmospheric pressure chemical ionization (APCI), interfaced to an Agilent LC.
# Cells (∼6 × 10^7) and compounds were preincubated 15 min at 30 °C (without shaking) before the addition of labelled substrates. Labelling was performed at 30 °C with shaking for 4 h. Reactions were stopped by adding 1 ml 30% KOH, 1 ml 100% ethanol, and 0.2 ml 2% pyrogallol. Samples were mixed and then heated at 80 °C for 30 min, then cooled to room temperature. Non-saponifiable lipids were extracted two times in petroleum ether, washed with water, dried under nitrogen gas and stored at −80 °C.
# For compound calibration, 2 μM solutions in 0.1% formic acid were directly infused into the mass spectrometer. Ergosterol, lanosterol and zymosterol undergo dehydration and their molecular species are detected as [M+H-H2O]^+ while squalene is detected as [M+H]^+. Supplementary Table 4 lists the multiple reaction monitoring parameters of the sterols and squalene, as well as the ^13C incorporated metabolites. The mass spectrometer source parameters are the following: CUR=40, GS1=60, NC=4.5. TEM=450 CAD=4. A mobile phase of 0.2% formic acid in methanol and isocratic run at 0.4 ml min^−1 was employed to separate the metabolites on a Waters XBridge C18 3.5 μm 2.1 × 50 mm column. The run time was 4.5 min.
# [3] = system: panel of 24 receptors/enzymes; test: Pharmacological profiling against a panel of 24 receptors/enzymes; assay type: binding
# [4] = system: Aspergillus fumigatus NF4905; test: Antifungal MIC; assay type: cell-based
# Erg26p Arg315His = test: In vitro microsomal Erg26p activity assay, mutant; assay type: biochemical, S. cerevisiae; conditions: microsome extracts
# Excerpt: (§1) Thus many of the FR171456 resistance mutations were mapped close to the NAD^+ or the substrate-binding site. The presence of three active conservative mutations Arg39Lys, […], and Arg315His in proximity to NAD^+ and substrate-binding site are consistent with FR171456 binding the substrate-binding pocket thus inhibiting the enzymatic activity. To address this more directly, we tested microsome extracts from the erg26Δ haploid yeast strains expressing the Erg26p wild type, Arg39Lys, Arg307His and Arg315His mutants in increasing doses of FR171456 to assess Erg26p mutant activity (Fig. 3b). Whilst Arg39Lys and Arg307His shift the I50 2-fold, Arg315His confers a 20-fold shift in I50. This highlights the importance of the interaction between Arg315 and the carboxyl group of the substrate/inhibitor as one of the most critical in the Erg26p active site (Fig. 3c).
# (§2) Wild-type yeast (FL200) microsomes were prepared as follows.
# Erg26p Arg39Lys = test: In vitro microsomal Erg26p activity assay, mutant; assay type: biochemical, S. cerevisiae; conditions: microsome extracts
# Excerpt: as §1, §2
# Erg26p Arg307His = test: In vitro microsomal Erg26p activity assay, mutant; assay type: biochemical, S. cerevisiae; conditions: microsome extracts
# Excerpt: as §1, §2
# [5] = system: Fusarium verticillioides NF4901; test: Antifungal MIC; assay type: cell-based
compound,measurement,setting,value
"C=C(CCC(C)C1CCC2C1(C)CC(O)C13CC14C(=O)CC(O)C(C)(C(=O)O)C4C(=O)CC23O)C(C)C [FR171456, (1R,2aR,3R,5aR,5bS,7aR,8S,9S,11aS,12aR)-1,5b,9-trihydroxy-2a,8-dimethyl-3-((R)-6-methyl-5-methyleneheptan-2-yl)-7,11-dioxohexadecahydrocyclopenta[a]cyclopropa[e]-phenanthrene-8-carboxylic acid]",MIC,[1],4 µg/mL and 9 µM
same,effect on 13C-labelled ergosterol,[2],dose-dependent reduction
same,effect on 13C-labelled lanosterol,[2],increase
same,effect on 13C-labelled zymosterol,[2],dose-dependent reduction
same,specificity in receptor/enzyme panel,[3],only one target with significant binding
same,MIC,[4],16 µg/mL and 36 µM
same,shift in I50 versus wild type,Erg26p Arg315His,20 fold
same,shift in I50 versus wild type,Erg26p Arg39Lys,2 fold
same,shift in I50 versus wild type,Erg26p Arg307His,2 fold
same,MIC,[5],32 µg/mL and 72 µM
